≈ marks a conversion by molar mass, not a printed value. Calls of active or inactive are those of the source. The calls are words filed in the database; no cut-off is given here.
Tests used:
Candida albicans [1] = experiment: Induction of intracellular ROS production in Candida albicans assessed as increase in fluorescence intensity incubated for 6 hrs by DCFH-DA staining based analysis; type: functional, organism-based
Cell membrane [2] = experiment: Induction of cytoplasmic membrane depolarization in Candida albicans assessed as increase in fluorescence intensity at 4 times MIC measured for 30 mins by DiSC3-5 dye based fluorescence method; type: cell membranes
Calf thymus DNA [3] = experiment: Binding affinity to calf thymus DNA assessed as decrease in fluorescence intensity by acridine orange dye based by UV-Vis absorption spectra analysis; type: nucleic-acid assay; details: Bos taurus
Cell membrane [4] = experiment: Induction of cell membrane damage in Candida albicans assessed as increase in fluorescent intensity at 0.5 to 8 times MIC measured for 6 hrs by PI staining based spectrofluorimeter analysis; type: subcellular
Candida albicans [5] = experiment: Antifungal activity against Candida albicans assessed as reduction in metabolic activity by measuring fluorescence intensity measured for 6 hrs by alamar blue staining based analysis; type: functional, organism-based
Candida albicans [6] = experiment: Induction of intracellular ROS production in Candida albicans assessed as increase in green fluorescence intensity at 4 times MIC incubated for 6 hrs by fluorescence microscopic analysis; type: functional, organism-based
Calf thymus DNA [7] = experiment: Induction of DNA cleavage in calf thymus DNA assessed as change in DNA band formation at 0.05 to 0.5 mM by agarose gel electrophoresis analysis; type: nucleic-acid assay; details: Bos taurus; dose 0.05-0.5 mM
L02 = experiment: Cytotoxicity against human L02 cells assessed as effect on cell growth incubated for 24 to 48 hrs by MTT assay; type: toxicity, cell-based; details: time 24-48 hrs
Calf thymus DNA [8] = experiment: Binding affinity to calf thymus DNA assessed as change in red shift by measuring hypochromism upto 7 mM by UV-Vis absorption spectra analysis; type: nucleic-acid assay; details: Bos taurus
Candida albicans [9] = experiment: Antifungal activity against Candida albicans assessed as inhibition of fungal growth incubated for 24 hrs by CLSI based microbroth dilution method; type: functional
Candida albicans [10] = experiment: Antioxidant activity in Candida albicans assessed as decrease in GSH content at 2 times MIC measured at 30 mins by ellman method; type: functional; design: scale not given: the % may be the effect or the level left; details: 0.5 h
Candida albicans [11] = experiment: Antifungal activity against Candida albicans assessed as reduction in LDH activity by measuring fluorescence intensity at 8 times MIC measured for 6 hrs by alamar blue staining based analysis; type: functional; design: scale not given: the % may be the effect or the level left
Calf thymus DNA [12] = experiment: Binding affinity to calf thymus DNA assessed as DNA-compound complex formation by measuring hyperchromism upto 7 mM by UV-Vis absorption spectra analysis; type: nucleic-acid assay; details: Bos taurus
Erythrocyte [13] = experiment: Hemolytic activity in RBC (unknown origin) assessed as appearance of smooth surface at 128 times MIC measured for 6 hrs by microscopic analysis; type: toxicity, cell-based
Candida tropicalis = experiment: Antifungal activity against Candida tropicalis assessed as inhibition of fungal growth incubated for 24 hrs by CLSI based microbroth dilution method; type: functional
Candida albicans [14] = experiment: Antioxidant activity in Candida albicans assessed as decrease in GSH content measured at 5 mins by ellman method; type: functional; design: scale not given: the % may be the effect or the level left
Calf thymus DNA [15] = experiment: Induction of DNA cleavage in calf thymus DNA at 0.5 mM in presence of Cu2+ by agarose gel electrophoresis analysis; type: nucleic-acid assay; details: Bos taurus
Candida albicans [16] = experiment: Potency index, ratio of fluconazole MIC to test compound MIC for antifungal activity against Candida albicans assessed as inhibition of fungal growth incubated for 24 hrs by CLSI based microbroth dilution method; type: functional
Calf thymus DNA [17] = experiment: Induction of DNA cleavage in calf thymus DNA at 0.05 to 0.5 mM in presence of Zn2+ by agarose gel electrophoresis analysis; type: nucleic-acid assay; details: Bos taurus; dose 0.05-0.5 mM
Candida albicans [18] = experiment: Antifungal activity against Candida albicans measured after at 14 passages; type: functional, organism-based
Candida albicans [19] = experiment: Induction of morphological changes in Candida albicans assessed as appearance of regular continuous surface by SEM analysis; type: functional, organism-based
Cell membrane [20] = experiment: Induction of cell membrane potential loss in Candida albicans assessed as change in fluorescence intensity at 4 times MIC measured for 30 mins by DiSC3-5 dye based fluorescence method; type: subcellular
Calf thymus DNA [21] = experiment: Induction of DNA cleavage in calf thymus DNA at 0.5 mM in presence of Zn2+ by agarose gel electrophoresis analysis; type: nucleic-acid assay; details: Bos taurus
Calf thymus DNA [22] = experiment: Binding affinity to calf thymus DNA assessed as binding constant by UV-Vis absorption spectra analysis; type: nucleic-acid assay; details: Bos taurus
Candida albicans [23] = experiment: Antifungal activity against Candida albicans at 4 times MIC measured within 10 hrs by time kill assay; type: functional, organism-based
Candida albicans [24] = experiment: Induction of morphological changes in Candida albicans assessed as appearance of dented surface at 2 times MIC measured after 6 hrs by SEM analysis; type: functional, organism-based
Erythrocyte [25] = experiment: Hemolytic activity in RBC (unknown origin) assessed as appearance of round surface at 128 times MIC measured for 6 hrs by microscopic analysis; type: toxicity, cell-based
Candida albicans [26] = experiment: Antifungal activity against Candida albicans assessed as reduction in metabolic activity by measuring fluorescence intensity at 0.5 to 8 times MIC measured for 6 hrs by alamar blue staining based analysis; type: functional, organism-based
Calf thymus DNA [27] = experiment: Induction of DNA cleavage in calf thymus DNA at 0.05 to 0.5 mM in presence of Cu2+ by agarose gel electrophoresis analysis; type: nucleic-acid assay; details: Bos taurus; dose 0.05-0.5 mM
Candida albicans [28] = experiment: Induction of morphological changes in Candida albicans assessed as appearance of atrophied surface at 2 times MIC measured after 6 hrs by SEM analysis; type: functional, organism-based
Cell membrane [29] = experiment: Induction of cell membrane damage in Candida albicans assessed as increase in red fluorescent intensity at 4 to 8 times MIC measured for 6 hrs by PI staining based spectrofluorimeter analysis
Albumin [30] = target: T1, Albumin (Homo sapiens, UniProt P02768); experiment: Binding affinity to human serum albumin assessed as Stem-Volmer quenching constant at 310K at pH 7.4 by fluorescence based analysis
Candida albicans [31] = experiment: Antifungal activity against Candida albicans assessed as reduction in LDH activity by measuring fluorescence intensity measured for 6 hrs by alamar blue staining based analysis; type: functional, organism-based
Albumin [32] = target: T1, Albumin; experiment: Binding affinity to human serum albumin assessed as Stem-Volmer quenching constant at 286K at pH 7.4 by fluorescence based analysis
[33] = Hemolytic activity in RBC (unknown origin) assessed as hemolysis rate 128 times MIC measured for 6 hrs by double dilution method; type: toxicity, cell-based, Erythrocyte; details: red blood cells (erythrocytes), read-out: Activity
Candida albicans [34] = experiment: […] in Candida albicans assessed as decrease in pink fluorescence by resazurin staining based analysis; type: functional, organism-based
Candida albicans [35] = experiment: Induction of morphological changes in Candida albicans assessed as deformation of cell shape at 2 times MIC measured after 6 hrs by SEM analysis; type: functional, organism-based
Candida albicans [36] = experiment: Induction of intracellular ROS production in Candida albicans assessed as fold increase in fluorescence intensity at 1 times MIC incubated for 6 hrs by DCFH-DA staining based analysis; type: functional
Candida albicans [37] = experiment: Antibiofilm activity against Candida albicans assessed as reduction in residual biomass measured for 24 hrs by crystal violet staining based; type: functional, organism-based; details: dose <= 8.0 µg/ml
Albumin [38] = target: T1, Albumin; experiment: Binding affinity to human serum albumin assessed as Stem-Volmer quenching constant at 298K at pH 7.4 by fluorescence based analysis
Candida albicans [39] = experiment: Induction of morphological changes in Candida albicans assessed as appearance of oval shape by SEM analysis; type: functional, organism-based
Aspergillus fumigatus = experiment: Antifungal activity against Aspergillus fumigatus assessed as inhibition of fungal growth incubated for 24 hrs by CLSI based microbroth dilution method; type: functional
Candida albicans [40] = experiment: Antifungal activity against Candida albicans ATCC 90023 assessed as inhibition of fungal growth incubated for 24 hrs by CLSI based microbroth dilution method; type: functional
Candida albicans [41] = experiment: Antioxidant activity in Candida albicans assessed as decrease in GSH content at 1 times MIC measured at 30 mins by ellman method; type: functional; design: scale not given: the % may be the effect or the level left; details: 0.5 h
Candida albicans [42] = experiment: Induction of intracellular ROS production in Candida albicans assessed as fold increase in fluorescence intensity at 4 to 128 times MIC incubated for 6 hrs by DCFH-DA staining based analysis; type: functional, organism-based
Candida parapsilosis = experiment: Antifungal activity against Candida parapsilosis ATCC 22019 assessed as inhibition of fungal growth incubated for 24 hrs by CLSI based microbroth dilution method; type: functional; details: Lodderomyces parapsilosis
Candida albicans [43] = experiment: Antibiofilm activity against Candida albicans assessed as inhibition of biofilm formation at 0.5 to 8 microg/ml measured for 24 hrs by crystal violet staining based; type: functional; details: dose 0.5-8 µg/ml, at 0.5 to 8 µg/mL

T1 sequence (P02768 whole entry): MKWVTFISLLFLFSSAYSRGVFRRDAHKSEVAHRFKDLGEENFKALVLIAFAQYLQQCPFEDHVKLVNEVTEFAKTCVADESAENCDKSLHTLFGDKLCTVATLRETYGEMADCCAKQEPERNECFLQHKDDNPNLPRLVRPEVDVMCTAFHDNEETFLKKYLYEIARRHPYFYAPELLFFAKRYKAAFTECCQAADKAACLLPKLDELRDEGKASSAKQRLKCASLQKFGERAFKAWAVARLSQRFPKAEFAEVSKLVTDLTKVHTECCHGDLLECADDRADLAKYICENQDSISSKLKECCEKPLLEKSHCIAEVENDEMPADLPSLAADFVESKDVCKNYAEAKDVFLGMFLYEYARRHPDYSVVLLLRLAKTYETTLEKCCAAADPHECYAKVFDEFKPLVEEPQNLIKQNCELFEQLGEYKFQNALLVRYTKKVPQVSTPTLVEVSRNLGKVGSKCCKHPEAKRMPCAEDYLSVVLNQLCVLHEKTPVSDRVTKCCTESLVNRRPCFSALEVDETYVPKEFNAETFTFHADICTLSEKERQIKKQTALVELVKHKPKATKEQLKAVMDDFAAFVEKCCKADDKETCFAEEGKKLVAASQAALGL

O=C1c2cccc3c(N/N=C/c4ccc([N+](=O)[O-])o4)ccc(c23)C(=O)N1CCO
Activity (Candida albicans [1]): Dose-Dependent Effect | Activity (Cell membrane [2]): inactive | Activity (Calf thymus DNA [3]): Active | Activity (Cell membrane [4]): Active | Activity (Candida albicans [5]): Dose-Dependent Effect | Activity (Candida albicans [6]): Active | Activity (Calf thymus DNA [7]): inactive | Activity (L02): Non-Toxic | Activity (Calf thymus DNA [8]): Active | MIC (Candida albicans [9]): 1 µM (≈ 0.394 µg/mL) | Activity (Candida albicans [10]): 40% | Activity (Candida albicans [11]): <55% | Activity (Calf thymus DNA [12]): Active | Activity (Erythrocyte [13]): Non-Toxic | MIC (Candida tropicalis): 2 µM (≈ 0.789 µg/mL) | Activity (Candida albicans [14]): 70% | Activity (Calf thymus DNA [15]): inactive | Ratio (Candida albicans [16]): 13 | Activity (Calf thymus DNA [17]): inactive | Activity (Candida albicans [18]): Active | Activity (Candida albicans [19]): Active | Activity (Cell membrane [20]): inactive | Activity (Calf thymus DNA [21]): inactive | K (Calf thymus DNA [22]): 2.4 10^4L/mol | Activity (Candida albicans [23]): Active | Activity (Candida albicans [24]): Active | Activity (Erythrocyte [25]): Non-Toxic | Activity (Candida albicans [26]): Active | Activity (Calf thymus DNA [27]): inactive | Activity (Candida albicans [28]): Active | Activity (Cell membrane [29]): Active | KSV (Albumin [30]): 8.82 10^4L/mol | Activity (Candida albicans [31]): Dose-Dependent Effect | KSV (Albumin [32]): 12.6 10^4L/mol | hemolysis at 6 h, 128 times MIC [33]: < 5% | Activity (Candida albicans [34]): Dose-Dependent Effect | Activity (Candida albicans [35]): Active | fold change (FC) (Candida albicans [36]): 2.5 | Activity (Candida albicans [37]): Dose-Dependent Effect | KSV (Albumin [38]): 9.34 10^4L/mol | Activity (Candida albicans [39]): Active | MIC (Aspergillus fumigatus): 4 µM (≈ 1.58 µg/mL) | MIC (Candida albicans [40]): 2 µM (≈ 0.789 µg/mL) | Activity (Candida albicans [41]): 50% | Activity (Candida albicans [42]): Active | MIC (Candida parapsilosis): 4 µM (≈ 1.58 µg/mL) | inhibition (INH) (Candida albicans [43]): 22%
